Measurements as given in a melting point compilation (Tetko et al.; mined from patent text by program, amines drawn as free bases though some values may be those of a salt).

First: CN(C)CCNC(=O)c1ccc(OCc2ccc(-c3ccccc3)cc2)nc1
Second: O=C(O)C(Cc1ccccc1)Nc1cc(-c2ccc(CCc3ccccc3)cc2)ncn1 (stereo not drawn)
The melting point of the first is lower: 151 to 154 °C for the first, 216 to 218 °C for the second.

First: CCS(=O)(=O)Cc1ccc(Cl)c2nc3n(c12)CCCN3c1ccc(Cl)cc1Cl
Second: CCOC(=O)c1ccc(C(CCc2cc(Cl)ccc2N2CCCCC2)C(N)=O)cc1 (stereo not drawn)
The melting point of the first is higher: 278 to 280 °C for the first, 95 to 97 °C for the second.

First: CC(C)C[C@H](NC(=O)OCc1ccccc1)C(=O)NC(Cc1ccc(F)cc1)C(=O)CSCc1ccco1 (stereo partly drawn)
Second: CC(C)[C@H](NC(=O)OCc1ccccn1)C(=O)N[C@@H](Cc1ccccc1)[C@@H](O)C[C@H](Cc1ccccc1)NC(=O)OCc1cccnc1
The melting point of the first is lower: 101 °C for the first, 169 to 171 °C for the second.

First: Ic1nnnn1C1CCCC1
Second: CCOC(=O)c1nc(C2CCCCC2)n(-c2cccc(Cl)c2F)c1Br
The melting point of the first is lower: 119 °C for the first, 150 to 152 °C for the second.

First: N#Cc1cnn(CCCl)c1N
Second: O=S1(=O)N(CCCl)c2cccc3c2N1CCC3
The melting point of the first is higher: 156 °C for the first, 70 °C for the second.

First: CC(=O)OC(CBr)Cc1c(O)ccc2ncccc12 (stereo not drawn)
Second: Cc1cccc2c(C(=O)O)cc(-c3ccccn3)nc12
The melting point of the first is lower: 146 to 148 °C for the first, 319 to 320 °C for the second.

Compared with `CC(C)(C)OC(=O)CN(Cc1cc(C(F)(F)F)cc(C(F)(F)F)c1)Cc1cc2ccccc2nc1Cl`, `Cn1ccnc1NC(=O)c1c(C(F)(F)F)nc2c(C(F)(F)F)cccc2c1O` is higher in melting point: 84 °C for the first, 259 °C for the second.

Compared with `COc1cc(Nc2c(C#N)cnc3cc4cc(OCCN5CCN(C)CC5)c(OC)cc4cc23)c(Cl)cc1F`, `COc1cc(CC(=O)NCCCc2ccc(C)c(C)c2)ccc1OCCN1CCNCC1` is lower in melting point: 197 to 205 °C for the first, 92 to 94 °C for the second.

First: COc1ccc(-c2cccn2-c2ccc(S(N)(=O)=O)cc2)cc1
Second: COc1ccc(Nc2cc(-c3ccc(S(C)(=O)=O)cc3)nc(N)n2)cc1Cl
The melting point of the first is lower: 183 to 184 °C for the first, 241 to 244 °C for the second.

First: CC(C)n1nc(-c2c(-c3ccccc3)nn3ccc(C(=O)NCCOc4ccccc4)cc23)ccc1=O
Second: O=C1C(c2ccccc2)=C(c2ccccc2)C(=O)N1CCc1cccc(F)c1
The melting point of the first is higher: 156 to 157 °C for the first, 129 to 130 °C for the second.

Compared with `NNC(=O)CCc1cccc(F)c1`, `CNC(=O)N(C=O)c1cccc(C)c1` is higher in melting point: 109 to 110 °C for the first, 112 to 113 °C for the second.

First: COc1ccc(Cn2c(=O)c3c(Cl)cc(Cl)cc3n(Cc3ccccc3)c2=O)cc1
Second: O=c1cc(CNCc2ccccc2)c2ccc(OCc3cccc(Cl)c3)cc2o1
The melting point of the first is higher: 138 to 143 °C for the first, 133 to 135 °C for the second.

First: NCC1Cc2cc(C(F)(F)F)cc(-c3ccc(F)c(Cl)c3)c2O1 (stereo not drawn)
Second: Nc1c(F)cc(-c2ccccc2)cc1Cl
The melting point of the first is higher: greater than 250 °C for the first, 105 to 107 °C for the second.

First: Cc1ccccc1Oc1cccc(CC(=O)O)c1O
Second: CCOC(=O)c1cc(N=Cc2ccccc2)ccc1OC(C)=O
The melting point of the first is higher: 116 to 117 °C for the first, 79 to 80 °C for the second.

First: Clc1csc(-c2nc(COc3ccc(CCCn4ccnc4)cc3)co2)c1
Second: C(=C\c1nc(COc2ccc(CCn3cncn3)cc2)co1)/c1ccccc1
The melting point of the first is lower: 69 to 70 °C for the first, 136 to 137 °C for the second.

First: CCc1c(C)c(NC(=O)CC(C)(C)C)c(C)c2c1S(=O)CC2c1ccc(C(C)C)cc1 (stereo not drawn)
Second: C#Cc1cc([C@@H](C)NC(=O)Nc2ccc(C(C)(C)C)cc2)ccc1NS(C)(=O)=O
The melting point of the first is higher: 195 to 196 °C for the first, 88.4 to 89.4 °C for the second.

First: CC1CN(c2c(F)cc3c(=O)c(C(=O)O)cn(C4CC4)c3c2OC(F)F)CCN1 (stereo not drawn)
Second: CNNc1ccc(-c2ccc3c(=O)c(C(=O)O)cn(C4CC4)c3c2C)cn1
The melting point of the first is lower: 223 to 225 °C for the first, 246 °C for the second.

First: Cc1cc([N+](=O)[O-])c(NCC(O)CO)c([N+](=O)[O-])c1 (stereo not drawn)
Second: Cc1cc(C(=O)Nc2ccc(Cl)nc2)ccc1[N+](=O)[O-]
The melting point of the first is lower: 118 °C for the first, 290 °C for the second.

Compared with `On1c(C(F)(F)F)nc2nc(Br)c(Cl)c(Br)c21`, `FC(F)(F)c1n[nH]c(C(F)(F)F)n1` is lower in melting point: 215 °C for the first, 74 to 75 °C for the second.

Compared with `CSc1ccc(C=O)cc1Cl`, `C=CCOc1c(Cl)cc(-c2ccc(=O)[nH]n2)cc1Cl` is higher in melting point: 58 to 59 °C for the first, 214 to 215 °C for the second.

First: COc1ccc2c(Cc3c(Cl)cncc3Cl)nnc(N3CCN(C)CC3)c2c1
Second: CCC(CC)n1cc(Cl)nc(N2CCc3cc(OC)cc(Br)c32)c1=O
The melting point of the first is higher: 160 to 162 °C for the first, 130 to 132 °C for the second.

`CCOC(=O)C1=C(C)NC2=C(C(=O)N(CCN(CC)CC)C2)C1c1ccccc1[N+](=O)[O-]` (stereo not drawn) and `CCOC(=O)NCc1cccc2c1C(=O)N(C1CCC(=O)NC1=O)C2=O` (stereo not drawn) cannot be ordered by melting point: 187 to 188 °C for the first, 187 to 189 °C for the second.

First: COCOc1cc(NC(=O)OC(C)(C)C)cc2ccccc12
Second: COc1cc(Nc2ncc(C#N)c(-c3ccccc3)n2)cc(OC)c1
The melting point of the first is lower: 64 to 66 °C for the first, 206 to 207 °C for the second.

First: CCOc1ccc(C2=NN(CC3CC3)C(=O)[C@H]3CC=CC[C@@H]23)cc1OCC (relative stereo)
Second: Cc1nccn1CCC(=O)c1nn2c3c(cccc13)CCC2
The melting point of the first is higher: 142 to 145 °C for the first, 133 to 134 °C for the second.

First: CCOC(=O)CC(c1ccc(OC)cc1)N1C(=O)c2ccccc2C1=O (stereo not drawn)
Second: COc1ccc2cc([C@H](C)C(=O)OCCN(CCO[N+](=O)[O-])S(=O)(=O)c3ccc(C)cc3)ccc2c1
The melting point of the first is lower: 32 °C for the first, 92 to 95 °C for the second.

Compared with `Cc1ccccc1NC(=O)C(Cl)Cl`, `O=C(O)c1cc(Cl)ccc1NC(=O)C(CS)Cc1ccccc1` (stereo not drawn) is lower in melting point: 192 to 195 °C for the first, 157 to 158 °C for the second.

First: O=c1c2ccc(Cl)cc2[nH]c2c(O)nn(Cc3ccsc3)c(=O)c12
Second: O=C(Cc1ccc(Cl)c(Cl)c1)NCc1ccc2c(c1)CN(C1CCC(=O)NC1=O)C2=O (stereo not drawn)
The melting point of the first is higher: greater than 250 °C for the first, 191 to 193 °C for the second.

First: C=Cc1ccc(S(=O)(=O)Nc2ncnc(OCCO)c2Cc2c(OC)cccc2OC)cc1
Second: CC(C)(C)C(=O)COc1nn(CC(=O)C(C)(C)C)c(-c2ccc(S(C)(=O)=O)cc2)c1-c1ccc(F)cc1
The melting point of the first is lower: 138 to 139 °C for the first, 180 to 182 °C for the second.

Compared with `Cc1nnc(-c2cnc3occ(-c4ccc(S(C)(=O)=O)cc4)c3c2)o1`, `COc1ccc(S(=O)(=O)NCc2ccccc2)c2c1oc1ccccc12` is lower in melting point: 251 to 252 °C for the first, 180 to 185 °C for the second.

Compared with `O=C(O)/C(=C\c1ccccc1)CC(=O)N1C[C@H]2CCCC[C@H]2C1`, `Nc1ncc2c(n1)CCC(NC(=O)[C@@H]1CCCN1C(=O)[C@@H](Cc1ccccc1)NS(=O)(=O)Cc1ccccc1)C2` (stereo partly drawn) is lower in melting point: 126 to 128 °C for the first, 117 to 120 °C for the second.

First: Cc1nc(-c2ccc(C=CC3(O)CN4CCC3CC4)cc2)no1 (stereo not drawn)
Second: ClCc1csc(-c2ccc(Cl)c(Cl)c2)n1
The melting point of the first is higher: 188 to 189 °C for the first, 93 to 96 °C for the second.

First: Cc1cccc(NCC2=NCCN2C(=O)Nc2ccc(Cl)cc2)c1C
Second: CC(C)(C(=O)O)c1ccc(CCNC(=O)c2ccc(Cl)cc2)cc1
The melting point of the first is lower: 153 to 155 °C for the first, 234 to 235 °C for the second.

First: COc1ccc(CCNCC(O)c2cc(OCc3ccccc3)cc(OCc3ccccc3)c2)cc1OC (stereo not drawn)
Second: CC(C)(NCCc1ccccc1)C(O)c1ccccc1 (stereo not drawn)
The melting point of the first is lower: 85 to 86 °C for the first, 103 to 104 °C for the second.

First: O=C(O)CC(CC(=O)O)c1cc(C(=O)O)n(CC(=O)O)c1
Second: O=C(O)c1ccc2[nH]c(C(=O)O)cc2c1
The melting point of the first is lower: 130 °C for the first, 314 to 315 °C for the second.

First: NC(=S)NN1CCOCC1
Second: N#Cc1ccc(-c2ccc3cnc(Nc4ccc(N5CCOCC5)cc4)nn23)cn1
The melting point of the first is lower: 168 °C for the first, 280 to 283 °C for the second.

Going from `CCOC(=O)C1=CC(C(=O)c2cc(Cl)ccc2O)=CN2CCc3c([nH]c4ccc(OC)cc34)C12C(=O)OCC` (stereo not drawn) to `CCOC(=O)CC[C@H](NC(=O)c1ccc(C(C)=Cc2cnc3nc(N)nc(N)c3c2)cc1)C(=O)OCC`, the melting point rises from 230 °C to greater than 300 °C.

First: C=CCc1cc(C=C(C(=O)OCC)C(=O)OCC)ccc1OC
Second: CCCOc1ccc(S(=O)(=O)Cl)cc1C(=O)O
The melting point of the first is lower: 69 °C for the first, 121 to 124 °C for the second.

First: CCCCC(c1ccc2[nH]c(=O)c(-c3ccccc3)nc2c1)n1ccnc1 (stereo not drawn)
Second: c1ccc2c(=Nc3ccncc3)cc3oc4cc(N5CCCCC5)ccc4nc-3c2c1
The melting point of the first is lower: 192 °C for the first, 267 to 268 °C for the second.

First: CC(C)CCc1cc2nnc(-c3ccccc3F)n2nc1OCc1ncnn1C
Second: CCCn1nc(C(C)C)c(C(=O)O)c1Cc1ccc(-c2ccccc2S(=O)(=O)NC(=O)OCC(C)C)c(F)c1
The melting point of the first is higher: 103 to 105 °C for the first, 77 to 82 °C for the second.

Compared with `O=C(O)CCc1ccc(Oc2ccc3c(c2)S(=O)(=O)N=C2CCCN23)cc1`, `CNC(=O)c1cc2c(Oc3ccc(/C=C/C(=O)NCC(O)CO)cc3)cncc2s1` (stereo not drawn) is higher in melting point: 216 to 222 °C for the first, 225 to 226 °C for the second.

First: COC(=O)CC(CSc1nc2ccccc2s1)C(=O)OC (stereo not drawn)
Second: CC(=Cc1ccc2ccccc2n1)C(=O)NO
The melting point of the first is lower: 46 to 47 °C for the first, 182 to 183 °C for the second.

First: c1ccc2c(c1)CCC21CCN(CCCCN2CCC3(CCc4ccccc43)CC2)CC1
Second: CN(CCSC(=O)Cc1ccccc1Nc1c(Cl)cccc1Cl)CC1(S)CCCCC1
The melting point of the first is higher: 113 to 115 °C for the first, 55 °C for the second.

First: N#Cc1cnn2c1N(C(=O)CN1CCN(CC#CCN3CCCC3=O)CC1)CC=C2c1cccc(C(F)(F)F)c1
Second: O=C(CC(F)(F)F)N[C@H]1CC[C@H](CCN2CCC(c3cccc4c3CCO4)CC2)CC1
The melting point of the first is lower: 124 to 126 °C for the first, 197 °C for the second.

Compared with `O=S1NC=Cc2ccccc21` (stereo not drawn), `c1ccc(C2CCN=C(c3csnn3)N2)cc1` (stereo not drawn) is lower in melting point: 198 to 200 °C for the first, 158 °C for the second.

`O=C(NC1CCN(CCCCc2cc(F)cc3c2-c2ccc(F)cc2C3C(=O)NCC(F)(F)F)CC1)c1ccccc1` (stereo not drawn) and `Fc1ccc(Cn2c(NC3CCN(CCc4ccccc4)CC3)nc3ccc(F)cc32)cc1` cannot be ordered by melting point: 177 to 179 °C for the first, 178 °C for the second.

Compared with `CCCc1nc2cncc(C)c2[nH]1`, `CCCCNc1c(C(=O)OCC)c(C)nc2c1ncn2C` is lower in melting point: 173 to 175 °C for the first, 62 to 63 °C for the second.

First: COc1ccc(-c2cc(=S)n(Cc3ccc(F)cc3)nc2-c2ccc(OC)cc2)cc1
Second: Fc1ccc(CNc2nc3ccccc3n2-c2ccc(F)c(F)c2)cc1F
The melting point of the first is lower: 137 to 138 °C for the first, 158 to 160 °C for the second.

First: CC1N(C)c2cc([N+](=O)[O-])ccc2C1(C)C (stereo not drawn)
Second: O=C(O)COc1cc(F)c(F)cc1C(=S)NCc1ccc(Br)cc1F
The melting point of the first is lower: 55 to 59 °C for the first, 206 to 209 °C for the second.

First: C#CC(C)(C)N1CCN(C(=O)C(C)(C)C)CC1
Second: OC1CSC(Oc2ccc(-c3cncnc3)nc2Cl)C(O)C1O (stereo not drawn)
The melting point of the first is higher: 106 to 109 °C for the first, 100 °C for the second.
